One assay concerns Pantetheinase (vanin). The experiment in a line: Human Whole Blood assay (vanin activity by pantothenic acid formation). The format is cell-based. The note with it: pantethine substrate, 5 min reaction at room temperature, geometric mean in case of multiple measurements, read-out: HWB IC50. How it is done: Human Whole Blood assay: Pantetheinase (vanin) converts panteheine into pantothenic acid and cysteamine. Accordingly, in the described protocol vanin activity is quantified by formation of pantothenic acid after pantetheine supplementation via pantethine. The assay is applicable to identify vanin inhibitors. Compound stocks are dissolved in DMSO at 10 mM. Further dilutions are performed in RPMI 1640 medium (Gibco, #A-10491-01) and final concentrations in the assay are 0.032 nM-500 nM.
Human blood is drawn into a blood bag (1% heparin, 50 I.E./mL). Blood is aliquoted into cavities of 96-deep-well plates at 290 μL and mixed with 10 μL compound solution or vehicle (30 sec at 1400 rpm on a shaker). Equilibration follows at room temperature, 250 rpm and for 30 min. The assay is started by adding 10 μL of substrate solution (2 μM pantethine in 1 mM DTT, 0.0025% Brij-35, 50 mM HEPES, pH7.5) to each well, except for some blank wells which receive […] substrate buffer (1 mM DTT, 0.0025% Brij-35, 50 mM HEPES, pH7.5) only. Samples are thoroughly shaken (30 sec, 1400 rpm) and reaction is allowed to take place at room temperature, 250 rpm and for 5 min. The reaction is stopped by addition of a vanin tool inhibitor in excess (BI-1 total conc. 10 μM). Centrifugation of the plate follows at 4° C., 665 G for 10 min. Then the blood plasma samples (100 μL) are transferred into another 96-deep-well plate and proteins are precipitated (5 min on ice) by adding 100 μL of ice cold precipitation solution (1 μM labelled pantothenic acid (di-β-alanine-13C6,15N2 calcium salt, Sigma, #705837) in acetonitrile).
Afterwards the plate is centrifuged (4° C., 3220 G, 10 min) and supernatants (50 μL) are collected into another 96-deep-well plate and mixed (10 sec, 1400 rpm) with 150 μL ice cold formic acid (0.1%, Carl Roth GmbH+Co.KG, #CP03.1). The formation of pantothenic acid is detected by RapidFire Mass Spectrometry. A TripleQuad 6500+(ABSciex, Germany) is equipped with an LC-1290 system, a RapidFire autosampler (Agilent, Germany) and a C18 cartridge Type C 12 μL (Agilent Cat #G9526-80000). Mobile phase A is consisting of 0.09% formic acid and 0.01% trifluoroacetic acid in water and mobile phase B of 0.09% formic acid and 0.01% trifluoroacetic acid in acetonitrile/methanol/water=47.5/47.5/5.

The target in assay [1] is T1, FLAG-tagged Vanin-1 (AA 22-493, T26I) (Homo sapiens, UniProt O95497, T26I).
T1 construct: FLAG-tagged Vanin-1 (AA 22-493, T26I, produced internally); FLAG; made in house
T1 sequence (O95497 22-493 T26I): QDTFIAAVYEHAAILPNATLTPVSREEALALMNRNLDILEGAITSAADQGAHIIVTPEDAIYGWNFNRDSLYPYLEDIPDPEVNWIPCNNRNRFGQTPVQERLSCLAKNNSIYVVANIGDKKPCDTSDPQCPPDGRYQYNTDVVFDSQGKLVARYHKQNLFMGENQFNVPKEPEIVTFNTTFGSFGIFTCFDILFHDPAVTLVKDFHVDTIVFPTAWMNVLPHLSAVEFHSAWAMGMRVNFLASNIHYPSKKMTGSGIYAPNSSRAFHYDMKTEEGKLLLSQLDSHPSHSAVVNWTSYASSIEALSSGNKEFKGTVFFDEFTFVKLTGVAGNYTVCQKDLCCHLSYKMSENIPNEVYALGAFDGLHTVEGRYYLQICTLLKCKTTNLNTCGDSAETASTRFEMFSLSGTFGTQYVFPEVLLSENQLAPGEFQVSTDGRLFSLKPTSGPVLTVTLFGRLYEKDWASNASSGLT
Put plainly: Vanin-1 enzymatic assay (pantothenic acid formation, RapidFire mass spectrometry). The class given is biochemical. The note with it: 0.1 nM FLAG-tagged Vanin-1, 3 μM D-pantethine, room temperature; geometric mean in case of multiple measurements; read-out: VNN-1 IC50. How it is done:
Description of Biological Properties Vanin-1 Enzymatic Assay:
The test compounds are dissolved in 100% DMSO at a concentration of 10 mM and in a first step diluted in DMSO to a concentration of 5 mM, followed by serial dilution steps in 100% DMSO. Dilution factor and number of dilution steps may vary according to needs. Typically 8 different concentrations by 1:5 dilutions are prepared, a further intermediate dilutions of the substances is carried out with assay buffer resulting in 1% final DMSO concentration in the assay.
0.1 nM of FLAG-tagged Vanin-1 (AA 22-493, T26I, produced internally) and test compounds are incubated at room temperature for 20 minutes in assay buffer (1 mM DTT, 0.0025% Brij-35, 50 mM HEPES, pH7.5). D-Pantethine (Sigma, Cat #P2125-5G) in assay buffer is added (final concentration 3 μM) and incubated for additional 30 minutes at room temperature. Total assay volume typically is 40 μl but might be adjusted according to needs. Reaction is stopped by adding equal volume of stop solution as the reaction mixture to reach 100 nM HD-pantothenic acid (as an internal standard) and 1% TFA. Assay plates are centrifuged for 2 minutes and the formation of pantothenic acid is detected by RapidFire Mass Spectrometry (mobile phase A: 0.1% formic acid and 0.01% trifluoroacetic acid in water; mobile phase B: 47.5% acetonitrile, 47.5% methanol, 0.1% formic acid and 0.01% trifluoroacetic acid in water) using a C18, 12 μL cartridge (Agilent Cat #G9205A).
The values given in Table I result from measurements of one or more samples. In case of multiple measurements the geometric mean values are given.

For 4 compounds, IC50 results are on record in US12358910B2, “Heteroaromatic compounds as Vanin inhibitors” (Boehringer Ingelheim International GmbH, priority 2018, dated 2025).

Molecules are shown by their SMILES.

Take `CC(=O)N(C)[C@H]1CCN(C(=O)c2ccc(N[C@@H](C)c3ccc4nn(C)cc4c3)nc2)C1` [Example 5.38]: the IC50 worked out at 1.37 nM in the assay with Pantetheinase (vanin) and 0.36 nM in assay [1].
In the case of `CN(C(=O)C1CC1)[C@H]1CCN(C(=O)c2ccc(NCc3csc4ccccc34)nc2)C1` [Example 5.39], the values for the IC50 (with Pantetheinase (vanin); in assay [1]) were 26.2 nM and 0.29 nM, respectively.
With `CC(=O)N(C)[C@H]1CCN(C(=O)c2ccc(NCc3c(C)ccc4nc(C)[nH]c34)nc2)C1` [Example 5.40], the IC50 in the assay with Pantetheinase (vanin) is 1.06 nM; in assay [1], 0.54 nM.
Consider `CC(=O)N(C)[C@H]1CCN(C(=O)c2ccc(N[C@@H](C)c3cccc4[nH]ncc34)nc2)C1` [Example 7.1, N-[(3S)-1-(6-{[(1S)-1-(1H-Indazol-4-yl)ethyl]amino}pyridine-3-carbonyl)pyrrolidin-3-yl]-N-methylacetamide], for which the IC50 in the assay on Pantetheinase (vanin) was 7.66 nM; in assay [1], 0.33 nM.
